We go through 6 molecules from US9024055B2, “Acetaminophen conjugates, compositions and methods of use thereof” (Acorda Therapeutics, Inc., priority 2011, dated 2015).

For data set [1] the following is noted: cited from earlier work.
In the next data set the test system is alkaline phosphatase. The note with it: with alkaline phosphatase; cited from earlier work.
Data set [2] is described as follows: Solubility in phosphate-buffered saline (pH 7.2) at room temperature (Example 18). The settings on record: pH 7.2, aqueous buffer.
The conditions of data set [3]: cited from earlier work. The source holds these as a separate data set.
For data set [4] the following is noted: Goodman and Gillman's 10th ed; cited from earlier work.
Data set [5] in a line: Stability in PBS at 37° C. (control matrix). Format: physicochemical. The note with it: out to four hours. How it is done: (§1) Loss of deuterated acetaminophen (APAP-d4) was also monitored in order to account for compound losses due to the metabolism of acetaminophen. Stability of the test samples in PBS at 37° C. was also determined.
(§2) Five lots of human whole blood (lithium heparin) were purchased from Biochemed and stored refrigerated at +5° C.±3° C. until use. Five lots of SD Rat whole blood (lithium heparin) were purchased from Biochemed and stored refrigerated at +5° C.±3° C. until use. Phosphate-buffered saline was used as a control matrix; it was prepared in-house and stored refrigerated at +5° C.±3° C. until use. Test Articles were weighed immediately prior use.
(§3) Whole blood was removed from storage and allowed to reach room temperature. It was pooled by species at this time. Once the pool reached room temperature, individual 1,980 μL aliquots of the whole blood pool were added to the appropriate tubes on test. Individual 1,980 μL aliquots of blank phosphate buffered saline (PBS) were added to the appropriate tubes on test. All tubes were pre-incubated at 37° C. in a water bath for 5 minutes.
The appropriate intermediate solution was added to each tube on test such that the final concentration of the test article in blood was 6.62 μM. The compound was assayed in triplicate at this concentration. Nominal O-minute samples were aliquoted into a 96-well plate as soon as spiking solution was added. Just prior to a 150 μL sample transfer, 450 μL of acetonitrile:methanol (1:1) was placed in the individual receiving wells in order to stop conversion reactions. The plate containing “stopped” samples was held, covered, in a wet-ice bath until all remaining timepoints were aliquoted. All remaining spiked samples were incubated at 37° C. in a water bath throughout the sampling period. […] Just prior to each transfer, 450 μL, of acetonitrile:methanol (1:1) was placed in the receiving wells for those aliquots in order to stop conversion reactions.

Data set [6] can be described thus: Solubility via modified protocol with water bath equilibration (Example 17B), HPLC. The class given is physicochemical. How it is done:
10-60 mg of Test Article A was weighed into a 1 mL micro centrifuge tube. 100 μL of solvent was added. Samples were mixed using a vortex mixer, and then sonicated for 15 minutes at ambient temperature. In the event of complete dissolution, more solute was added. The resultant suspensions were equilibrated in a water bath for 20 minutes and were centrifuged for 1 minute to yield an off-white saturated solution. The samples were then equilibrated a further 20 minutes in the water bath. 5-10 μL aliquots of the supernatant were diluted into 25 mL of mobile phase using volumetric flasks, prior to analysis by HPLC.
(§4) A HPLC method was developed to quantify Test Article A concentration via external standard analysis, and also monitor and quantify the hydrolysis product APAP. Linearity was determined over the range 20 to 120 μg/mL, and reproducibility was determined at 100 μg/mL.

Data set [7] is described as follows: Rat liver microsome-mediated metabolism (appearance of acetaminophen). The class given is in vitro ADME. The settings on record: for Stability in buffer: phosphate buffer at 37° C. (rat microsome study). The protocol: Loss of APAP-d4 was also monitored.
Lot 62548 consisting of ˜334 male rat livers and lot 59232 consisting of 10 female rat livers were pooled at a 1:1 ratio just before use. […] Compounds were weighed immediately prior to use. […] Purity was taken into account for the stock preparation.
Incubation wells were placed in a wet ice-bath.

A short description of data set [8]: Solubility testing, initial protocol (Example 17A), HPLC. The class given is physicochemical. The settings on record: thermodynamic from solid, 18 ° C. How it is done: 10-60 mg of Test Article A was weighed into a 1 mL micro centrifuge tube. 100 μL of solvent was added. Samples were mixed using a vortex mixer, and then sonicated for 15 minutes at ambient temperature. In the event of complete dissolution, more solute was added. The resultant suspensions were centrifuged to yield an off-white saturated solution. A small aliquot of the supernatant was diluted prior to analysis by HPLC.
as §4

Data set [9] in a line: Test article pharmacokinetics in rats after a single oral or intravenous dose; plasma acetaminophen by LC-MS/MS. The settings on record: for Acetaminophen exposure compared with administration of acetaminophen: equivalent acetaminophen doses, oral and intravenous. Format: in vivo, Sprague-Dawley rats. The protocol: Forty-eight (48) male and female Sprague-Dawley rats were assigned to eight dose groups consisting of three animals per test article per dose route per gender. There were four test articles including acetaminophen, obtained from Sigma-Aldrich, and three acetaminophen conjugates as set forth below.
The animals received a single dose (oral or intravenous) of the test articles via oral gavage or slow intravenous bolus. […] Cage-side observations were performed daily; body weights were recorded prior to each dosing day. Blood samples for pharmacokinetic (PK) analyses were collected at 5 minutes to 8 hr post-dose and acetaminophen plasma concentrations were measured via a LC-MS/MS method.
Non-compartmental pharmacokinetic analysis was conducted for mean plasma acetaminophen concentrations for each test article. Measures of acetaminophen exposure (e.g., AUClast) were typically greater in female animals than male animals for all test articles and for both the oral and intravenous routes of administration.

A short description of data set [10]: Human liver microsome-mediated metabolism (appearance of acetaminophen). The note with it: for Stability in buffer: phosphate buffer at 37° C. (human microsome study). How it is done:
The appearance of acetaminophen (APAP) when Test Articles A, B or C are incubated in human liver microsomes at 37° C. was determined. Loss of APAP-d4 was also monitored.
One lot consisted of ˜150 human mixed gender liver microsomes was purchased from BD Biosciences and stored frozen at −80° C. until use. Compounds were weighed immediately prior use. Test Article A, Test Article B, and Test Article C were weighed on a microbalance and dissolved in water to generate individual stock solutions, each at a concentration of 3.31 mM. Purity was taken into account for each stock solution prepared. APAP-d4 was weighed on a microbalance and dissolved in water to generate a stock solution at a 3.31 mM concentration. Purity was taken into account for the stock preparation.
One part Test Articles A, B or C and one part APAP-d4 was added to three parts water to arrive at an intermediate solution consisting of 662 μM for each compound.
The intermediate solutions prepared above were added to phosphate buffer to arrive at solutions consisting of 8.827 μM of each compound; these were called Substrate solutions. Incubation wells were placed in a wet ice-bath. 750 μL of Substrate solution was added to the appropriate wells. […] 50 μL of Microsomal suspension (20 mg/mL) was added to the appropriate wells. […] Samples were pre-incubated by shaking at 37° C. for 5 minutes. Just prior to starting the reactions in the next step 80 μL aliquots were removed and “killed” with 200 μL of Stop solution; these were the 0 min samples.
Reactions for the remaining samples were started by adding 180 μL Cofactor Solution (5×) to the appropriate wells. […] A 20 μL aliquot of Cofactor Solution (5×) was added to the stopped 0 min samples. […] At 2.5, 5, 10, 30, 60, 120, and 240 minutes, 100 μL of the specified incubation sample was removed and “killed” with 200 μL of Stop Solution. Once all required samples were collected, the plate was centrifuged at 3000 rpm for 10 minutes to pellet the precipitated proteins, and the resultant supernatants were transferred to a fresh 96-well plate for extraction and analysis.
Samples were analyzed for acetaminophen and acetaminophen-d4 concentrations, using a method that employs HPLC and MS/MS detection.
(Liver microsomes are a subcellular fraction often used to study metabolism.)

The nature of data set [11]: Hydrolysis and metabolism in human whole blood at 37° C. (appearance of acetaminophen). Format: in vitro ADME. The note with it: human whole blood vs PBS. How it is done: as §1, §2
(§5) Purity was taken into account for the stock preparation.
Whole blood was removed from storage and allowed to reach room temperature. It was pooled by species at this time. Once the pool reached room temperature, individual 1980 μL aliquots of the whole blood pool were added to the appropriate tubes on test. All tubes were pre-incubated at 37° C. in a water bath for 5 minutes.
The appropriate intermediate solution was added to each tube on test such that the final concentration of the test article in blood was 6.62 μM. The compound was assayed in triplicate at this concentration. Nominal O-minute samples were aliquoted into a 96-well plate as soon as spiking solution was added. […]

Data set [12] can be described thus: Hydrolysis and metabolism in rat whole blood at 37° C. (appearance of acetaminophen). The class given is in vitro ADME, SD Rat. The note with it: rat whole blood vs PBS. The protocol:
as §1, §2, §5, §3
The appropriate intermediate solution was added to each tube on test such that the final concentration of the test article in blood was 6.62 μM. The compound was assayed in triplicate at this concentration. […]

[13] abbreviates: Anesthesia and Analgesia 101, 90-96, 2005.
Setting [14] is: British Journal of Anaesthesia 94 (5): 642-648, 2005.
The mark [15] stands for this setting: with and without cofactor, compared with buffer, 37° C., up to 240 minutes.

The solubility is the concentration that dissolves in the medium under given conditions.

≈ marks a conversion by molar mass, not a printed value. Where two headings read alike, the source gives them in different places.

As to `CC(=O)Nc1ccc(OP(=O)(O)O)cc1` [4-acetamidophenyl dihydrogen phosphate], the Water solubility in [1] is on record as 50 g per 100 mL. In addition, in the data set with alkaline phosphatase, the “Time required in vitro to yield acetaminophen from the derivative” value is on record as “about 15 hours”.
Molecule `CC(=O)Nc1ccc(O)cc1` [Acetaminophen, N-(4-hydroxyphenyl)acetamide] gave a solubility in data set [2] (phosphate-buffered saline) of 13.1 mg/mL (≈ 86.7 mM). Further, the values for the Local tolerance profile in [3] (setting [13]) and in data set [3] (setting [14]) were 0% and 52%, respectively. In addition, the Water solubility entry in data set [1] is given as “about 1.3 g per 100 mL”. Further, in [4], the Half-life entry is listed as “about 2 hours”.
Take `CCN(CC)CC(=O)Oc1ccc(NC(C)=O)cc1` [Propacetamol, 4-acetamidophenyl 2-(diethylamino)acetate]: the Local tolerance profile is recorded as 49% in [3] (setting [13]) and 90% in [3] (setting [14]).
As to `CC(=O)Nc1ccc(OC(=O)SCCS(=O)(=O)[O-])cc1.[Na+]` [Test Article A, Sodium 2-((4-acetamidophenoxy)carbonylthio)ethanesulfonate], in [5], the “Stability in PBS” value was “rather stable”. The solubility at 40 min in data set [6] (PEG-400, 19 °C, organic solvent or mixture, thermodynamic from solid) is 103 mg/mL; in [6] (PEG-400/water (50% water), 19 °C, aqueous with cosolvent or surfactant or cyclodextrin, thermodynamic from solid), 306 mg/mL; in data set [6] (pH 5 buffer, 19 °C, pH 5, aqueous buffer, thermodynamic from solid) it was 226 mg/mL; in data set [6] (pH 6.5 buffer, 19 °C, pH 6.5, aqueous buffer, thermodynamic from solid) it was 198 mg/mL; in data set [6] (pH 6.5 buffer, 35 °C, pH 6.5, aqueous buffer, thermodynamic from solid), 406 mg/mL; in data set [6] (pH 8 buffer, 19 °C, pH 8, aqueous buffer, thermodynamic from solid) it was 198 mg/mL. Besides, the solubility at 40 min in data set [6] (propylene glycol, 19 °C, organic solvent or mixture, thermodynamic from solid) worked out at 69 mg/mL; in data set [6] (propylene glycol/water (50% water), 19 °C, aqueous with cosolvent or surfactant or cyclodextrin, thermodynamic from solid) it was 185 mg/mL; in [6] (water, 19 °C, thermodynamic from solid, Water Repeat, modified protocol), 230 mg/mL. Moreover, the solubility in data set [6] (pH 6.5 Buffer, 19 ° C.) was found to be 210 mg/mL; in data set [6] (water, 0 °C, water, thermodynamic from solid, Water (in Fridge), 0 to 4 ° C., read-out: Solubility) it was 78 mg/mL. The Stability in buffer entry in data set [7] and in [10] was “stable” throughout. Further, the “Conversion to acetaminophen in rat liver microsomes” value in data set [7] (setting [15]) is “at a level much greater than incubations with buffer”. In addition, the solubility at 15 min stood at 246 mg/mL in data set [8] (aqueous buffer, PBS); 199 mg/mL in data set [8] (aqueous with cosolvent or surfactant or cyclodextrin, 50% Water, Ethanol); 1 mg/mL in [8] (organic solvent or mixture, Ethanol); 280 mg/mL in data set [8] (Water, initial protocol). In addition, the “Acetaminophen exposure compared with administration of acetaminophen” value in data set [9] is on record as “as great as, or greater than”. Also, the “Time to maximum acetaminophen plasma concentration compared with Test Articles C and B” value in data set [9] (oral administration) was “longer time to maximum acetaminophen plasma concentrations”. For the same molecule, the “Conversion to acetaminophen in human liver microsomes” value in data set [10] (setting [15]) is recorded as “at a level greater than incubations with buffer”.
Consider `CC(=O)Nc1ccc(OC(=O)NCCS(=O)[O-])cc1.[Na+]` [Test Article B, Sodium 2-((4-acetamidophenoxy)carbonylamino)ethanesulfinate], for which the “Stability in PBS” value in data set [5] is given as “not stable”. In addition, the solubility in data set [2] turned out to be 424 mg/mL. Moreover, the “Conversion to APAP in blood incubations versus buffer incubations” value in data set [11] and in [12] was “nearly equivalent” in each case. In addition, the Stability in buffer entry in data set [7] and in data set [10] was “not stable” throughout. The “Acetaminophen exposure compared with administration of acetaminophen” value in data set [9] was “substantially lower”.
Regarding `CC(=O)Nc1ccc(OC(=O)NCCS(=O)(=O)[O-])cc1.[Na+]` [Test Article C, Sodium 2-((4-acetamidophenoxy)carbonylamino)ethanesulfonate, reference compound], in [5], the “Stability in PBS” value was “not stable”. Further, in [2], the solubility was found to be 492 mg/mL. For the same molecule, the “Conversion to APAP in blood incubations versus buffer incubations” value in data set [11] and in [12] was “nearly equivalent” in each case. In addition, the Stability in buffer result in data set [7] and in data set [10] was “not stable” each time. Besides, the “Acetaminophen exposure compared with administration of acetaminophen” value in data set [9] is listed as “substantially lower”.
